Test results published in ChEMBL document CHEMBL1799925, “Inhibition of sphingosine 1-phosphate lyase for the treatment of rheumatoid arthritis: discovery of (E)-1-(4-((1R,2S,3R)-1,2,3,4-tetrahydroxybutyl)-1H-imidazol-2-yl)ethanone oxime (LX2931) and (1R,2S,3R)-1-(2-(isoxazol-3-yl)-1H-imidazol-4-yl)butane-1,2,3,4-tetraol (LX2932)” (J Med Chem, 2010).
Calls of active or inactive are those of the source. The calls are words filed in the database; no cut-off is given here.

Experiments:
[1] = (§1) AUC (0 to infinity) in 129/SvEvBrd X C57BL/6 F1 mouse at 10 mg/kg, po by LC/MS/MS analysis; assay type: ADME, organism-based, Plasma; set-up: time infinity, dose 10 mg/kg, route oral; conditions: 129/SvEvBrd X C57BL/6 F1, mouse, plasma
[2] = test system: Mus musculus; experiment: Immunomodulatory activity in 129/SvEvBrd X C57BL/6 F1 mouse assessed as decrease in peripheral blood lymphocyte count at 30 mg/kg, po measured after 18 hrs by complete blood count analysis relative to control; assay type: ADME, organism-based; set-up: dose 30 mg/kg, route oral; scale not given: the % may be the effect or the level left; conditions: in vivo
[3] = test system: Rattus norvegicus; experiment: Immunomodulatory activity in Sprague-Dawley rat jejunum assessed as reduction in peripheral blood lymphocyte level at 30 mg/kg, po administered daily for 3 days measured after 18 hrs by CBC analysis; assay type: functional, organism-based; set-up: dose 30 mg/kg
[4] = test system: Rattus norvegicus; experiment: Increase in S1P level in Sprague-Dawley rat eye at 30 mg/kg, po administered daily for 3 days measured after 18 hrs […]; assay type: functional, organism-based; set-up: dose 30 mg/kg
[5] = test system: Rattus norvegicus; experiment: Immunomodulatory activity in Sprague-Dawley rat thymus assessed as reduction in peripheral blood lymphocyte level at 30 mg/kg, po administered daily for 3 days measured after 18 hrs by CBC analysis; assay type: functional, organism-based; set-up: dose 30 mg/kg
[6] = test system: Mus musculus; experiment: Effect on serum anti-CII antibody levels in type 2 collagen-induced arthritis in mouse at 30 mg/kg, po administered qd on day 20 after collagen challenge by ELISA; assay type: functional, organism-based; set-up: dose 30 mg/kg
[7] = test system: Mus musculus; experiment: Antiarthritic activity in […] collagen-induced arthritic mouse assessed as decrease in erosion at 100 mg/kg, po administered qd one started one day before collagen challenge; assay type: functional, organism-based; set-up: dose 100 mg/kg
[8] = test system: Rattus norvegicus; experiment: Immunomodulatory activity in Sprague-Dawley rat eye assessed as reduction in peripheral blood lymphocyte level at 30 mg/kg, po administered daily for 3 days measured after 18 hrs by CBC analysis; assay type: functional, organism-based; set-up: dose 30 mg/kg
[9] = test system: Mus musculus; experiment: Antiarthritic activity in […] collagen-induced arthritis in mouse assessed as decrease in joint swelling at 30 mg/kg, po administered qd on day 20 after collagen challenge by ELISA; assay type: functional, organism-based; set-up: dose 30 mg/kg
[10] = test system: Mus musculus; experiment: Antiarthritic activity in […] collagen-induced arthritis in mouse assessed as decrease in clinical scores at 5 mg/kg, po administered qd on day 20 after collagen challenge by ELISA; assay type: functional, organism-based; set-up: dose 5 mg/kg
[11] = test system: Rattus norvegicus; experiment: Increase in S1P level Sprague-Dawley rat heart at 30 mg/kg, po administered daily for 3 days measured after 18 hrs […]; assay type: functional, organism-based; set-up: dose 30 mg/kg
[12] = test system: Rattus norvegicus; experiment: Immunomodulatory activity in Sprague-Dawley rat kidney assessed as reduction in peripheral blood lymphocyte level at 30 mg/kg, po administered daily for 3 days measured after 18 hrs by CBC analysis; assay type: functional, organism-based; set-up: dose 30 mg/kg
[13] = test system: Mus musculus; experiment: Immunomodulatory activity in mouse assessed as induction of lymphopenia at 5 to 10 mg/kg, po administered as single dose measured after 18 hrs; assay type: functional, organism-based
[14] = test system: Mus musculus; experiment: Antiarthritic activity in […] collagen-induced arthritic mouse assessed as decrease in joint swelling at 100 mg/kg, po administered qd one started one day before collagen challenge; assay type: functional, organism-based; set-up: dose 100 mg/kg
[15] = test system: Rattus norvegicus; experiment: Immunomodulatory activity in Sprague-Dawley rat spleen assessed as reduction in peripheral blood lymphocyte level at 30 mg/kg, po administered daily for 3 days measured after 18 hrs by CBC analysis; assay type: functional, organism-based; set-up: dose 30 mg/kg
[16] = test system: Mus musculus; experiment: Antiarthritic activity in […] collagen-induced arthritic mouse assessed as increase in CD4-positive cells in thymus at 100 mg/kg, po qd administered one day before collagen challenge; assay type: functional, organism-based; set-up: dose 100 mg/kg
[17] = test system: Mus musculus; experiment: Antiarthritic activity in […] collagen-induced arthritis in mouse assessed as decrease in joint swelling at 5 mg/kg, po administered qd on day 20 after collagen challenge by ELISA; assay type: functional, organism-based; set-up: dose 5 mg/kg
[18] = test system: Mus musculus; experiment: Antiarthritic activity in […] collagen-induced arthritic mouse assessed as decrease in arthritic score at 100 mg/kg, po administered qd one started one day before collagen challenge; assay type: functional, organism-based; set-up: dose 100 mg/kg
[19] = test system: Rattus norvegicus; experiment: Immunomodulatory activity in Sprague-Dawley rat lung assessed as reduction in peripheral blood lymphocyte level at 30 mg/kg, po administered daily for 3 days measured after 18 hrs by CBC analysis; assay type: functional, organism-based; set-up: dose 30 mg/kg
[20] = test system: Mus musculus; experiment: Antiarthritic activity in […] collagen-induced arthritic mouse assessed as decrease in synovial hyperplasia at 100 mg/kg, po administered qd one started one day before collagen challenge; assay type: functional, organism-based; set-up: dose 100 mg/kg
[21] = test system: Mus musculus; experiment: Antiarthritic activity in […] collagen-induced arthritic mouse assessed as decrease in exudate formation at 100 mg/kg, po administered qd one started one day before collagen challenge; assay type: functional, organism-based; set-up: dose 100 mg/kg
[22] = test system: Rattus norvegicus; experiment: Immunomodulatory activity in Sprague-Dawley rat heart assessed as reduction in peripheral blood lymphocyte level at 30 mg/kg, po administered daily for 3 days measured after 18 hrs by CBC analysis; assay type: functional, organism-based; set-up: dose 30 mg/kg
[23] = test system: Rattus norvegicus; experiment: Immunomodulatory activity in Sprague-Dawley rat liver assessed as reduction in peripheral blood lymphocyte level at 30 mg/kg, po administered daily for 3 days measured after 18 hrs by CBC analysis; assay type: functional, organism-based; set-up: dose 30 mg/kg
[24] = test system: Rattus norvegicus; experiment: Immunomodulatory activity in Sprague-Dawley rat lymph node assessed as reduction in peripheral blood lymphocyte level at 30 mg/kg, po administered daily for 3 days measured after 18 hrs by CBC analysis; assay type: functional, organism-based; set-up: dose 30 mg/kg
[25] = test system: Mus musculus; experiment: Antiarthritic activity in […] collagen-induced arthritic mouse assessed as increase in CD8-positive cells in thymus at 100 mg/kg, po qd administered one day before collagen challenge; assay type: functional, organism-based; set-up: dose 100 mg/kg
[26] = test system: Mus musculus; experiment: Antiarthritic activity in […] collagen-induced arthritic mouse assessed as decrease in inflammation at 100 mg/kg, po administered qd one started one day before collagen challenge; assay type: functional, organism-based; set-up: dose 100 mg/kg
[27] = test system: Mus musculus; experiment: Antiarthritic activity in […] collagen-induced arthritic mouse assessed as delay in onset of collagen-induced arthritis at 100 mg/kg, po administered qd one started one day before collagen challenge; assay type: functional, organism-based; set-up: dose 100 mg/kg
[28] = test system: Mus musculus; experiment: Antiarthritic activity in […] collagen-induced arthritis in mouse assessed as decrease in clinical scores at 30 mg/kg, po administered qd on day 20 after collagen challenge by ELISA; assay type: functional, organism-based; set-up: dose 30 mg/kg
[29] = Volume of distribution at steady state in 129/SvEvBrd X C57BL/6 F1 mouse at 1 mg/kg, iv by LC/MS/MS analysis; assay type: ADME, organism-based; set-up: dose 1 mg/kg, route intravenous; conditions: in vivo, read-out: Vdss
[30] = test system: Mus musculus; experiment: as §1; assay type: ADME, organism-based, Plasma; set-up: time infinity, dose 10 mg/kg, route oral; conditions: mouse, in vivo
[31] = Tmax in 129/SvEvBrd X C57BL/6 F1 mouse at 10 mg/kg, po by LC/MS/MS analysis; assay type: ADME, organism-based; set-up: dose 10 mg/kg, route oral; conditions: in vivo
[32] = test system: Mus musculus; experiment: Bioavailability in 129/SvEvBrd X C57BL/6 F1 mouse determined from 1 mg/kg, iv and 10 mg/kg, po by LC/MS/MS analysis; assay type: ADME, organism-based; conditions: mouse, in vivo
[33] = Half life in 129/SvEvBrd X C57BL/6 F1 mouse at 10 mg/kg, po by LC/MS/MS analysis; assay type: ADME, organism-based; set-up: dose 10 mg/kg, route oral; conditions: in vivo
[34] = Cmax in 129/SvEvBrd X C57BL/6 F1 mouse at 10 mg/kg, po by LC/MS/MS analysis; assay type: ADME, organism-based; set-up: dose 10 mg/kg, route oral; conditions: in vivo

SMILES: CCc1conc1-c1nc([C@@H](O)[C@H](O)[C@H](O)CO)c[nH]1.Cl
- AUC(0-inf) [1]: 26.9 µM·h
- Activity [2]: -55%

SMILES: CCOc1cc(-c2nc([C@@H](O)[C@H](O)[C@H](O)CO)c[nH]2)no1.Cl
- AUC(0-inf) [1]: 9.1 µM·h
- Activity [2]: -26%

SMILES: Cl.OC[C@@H](O)[C@@H](O)[C@H](O)c1c[nH]c(-c2cc(C3CC3)on2)n1
- AUC(0-inf) [1]: 9.6 µM·h
- Activity [2]: -19%

SMILES: C/C(=N\O)c1ncc([C@@H](O)[C@H](O)[C@H](O)CO)[nH]1
- Activity [3]: Active
- Activity [4]: inactive
- Activity [5]: Active
- Activity [6]: inactive
- Activity [7]: Active
- Activity [8]: Active
- Activity [9]: Active
- Activity [10]: Active
- Activity [11]: inactive
- Activity [12]: Active
- Activity [13]: inactive
- Activity [14]: Active
- Activity [15]: Active
- Activity [16]: Active
- Activity [17]: Active
- Activity [18]: Active
- Activity [19]: Active
- Activity [20]: Active
- Activity [21]: Active
- Activity [22]: Active
- Activity [23]: Active
- Activity [24]: Active
- Activity [25]: Active
- Activity [26]: Active
- Activity [27]: Active
- Activity [28]: Active

SMILES: Cc1onc(-c2nc([C@@H](O)[C@H](O)[C@H](O)CO)c[nH]2)c1[N+](=O)[O-].Cl
- AUC(0-inf) [1]: 8.2 µM·h
- Activity [2]: -27%

SMILES: Cl.OC[C@@H](O)[C@@H](O)[C@H](O)c1c[nH]c(C2=NOCC2)n1
- AUC(0-inf) [1]: 8.3 µM·h
- Activity [2]: -12%

SMILES: CC(=O)c1c(-c2nc([C@@H](O)[C@H](O)[C@H](O)CO)c[nH]2)noc1C.Cl
- AUC(0-inf) [1]: 11.7 µM·h
- Activity [2]: -6%

SMILES: CN(C)Cc1cc(-c2nc([C@@H](O)[C@H](O)[C@H](O)CO)c[nH]2)no1.Cl
- AUC(0-inf) [1]: 5.9 µM·h
- Activity [2]: -10%

SMILES: CC(C)c1cc(-c2nc([C@@H](O)[C@H](O)[C@H](O)CO)c[nH]2)no1.Cl
- AUC(0-inf) [1]: 12.8 µM·h
- Activity [2]: -30%

SMILES: Cl.OCc1cc(-c2nc([C@@H](O)[C@H](O)[C@H](O)CO)c[nH]2)no1
- AUC(0-inf) [1]: 6.1 µM·h
- Activity [2]: -7%

SMILES: CC(=O)c1nc([C@@H](O)[C@H](O)[C@H](O)CO)c[nH]1.Cl
- AUC(0-inf) [1]: 15 µM·h
- Activity [2]: -25%

SMILES: Cl.OC[C@@H](O)[C@@H](O)[C@H](O)c1c[nH]c(-c2ccon2)n1
- Vd [29]: 0.54 L/kg
- AUC [30]: 21 µM·h
- Activity [6]: inactive
- Activity [9]: Active
- Activity [10]: Active
- Tmax [31]: 2.1 h
- Activity [2]: -70%
- F [32]: 2.4%
- Activity [17]: Active
- half-life [33]: 2.9 h
- Cmax [34]: 6.2 µM
- Activity [28]: Active

SMILES: Cl.OC[C@@H](O)[C@@H](O)[C@H](O)c1c[nH]c(-c2cc(C(F)(F)F)on2)n1
- AUC(0-inf) [1]: 7.8 µM·h
- Activity [2]: 2%

SMILES: Cl.OC[C@@H](O)[C@@H](O)[C@H](O)c1c[nH]c(-c2cc(-c3ccccc3)on2)n1
- AUC(0-inf) [1]: 10.3 µM·h
- Activity [2]: -2%

SMILES: Cc1cc(-c2nc([C@@H](O)[C@H](O)[C@H](O)CO)c[nH]2)no1.Cl
- AUC(0-inf) [1]: 12.5 µM·h
- Activity [2]: -39%

SMILES: Cc1cc(-c2nc([C@@H](O)[C@H](O)[C@H](O)CO)c[nH]2)on1.Cl
- AUC(0-inf) [1]: 5.3 µM·h
- Activity [2]: -4%
